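Abbreviation: GI50, concentration required for 50% inhibition of growth. TGI marks complete inhibition of growth.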
What was measured:
Experiment in all cases: NCI-60 cell line screen, 384-well format
[1] = test system: KM12 colon
[2] = test system: UACC-62 melanoma
[3] = test system: SK-OV-3 ovarian
[4] = test system: UACC-257 melanoma
[5] = test system: 786-0 renal
[6] = test system: MDA-MB-468 breast
[7] = test system: OVCAR-4 ovarian
[8] = test system: HL-60(TB) leukemia
[9] = test system: NCI-H522 lung
[10] = test system: RPMI-8226 leukemia
[11] = test system: TK-10 renal
[12] = test system: PC-3 prostate
[13] = test system: SK-MEL-2 melanoma
[14] = test system: SK-MEL-5 melanoma
[15] = test system: SF-539 CNS
[16] = test system: LOX IMVI melanoma
[17] = test system: U251 glioblastoma
[18] = test system: UO-31 renal
[19] = test system: HCT-116 colon
[20] = test system: COLO 205 colon
[21] = test system: OVCAR-3 ovarian
[22] = test system: SW-620 colon
[23] = test system: SF-295 CNS
[24] = test system: OVCAR-8 ovarian
[25] = test system: NCI-H23 lung
[26] = test system: M14 melanoma
[27] = test system: SNB-75 CNS
[28] = test system: OVCAR-5 ovarian
[29] = test system: SR leukemia
[30] = test system: SNB-19 CNS
[31] = test system: EKVX NSCLC
[32] = test system: HOP-92 NSCLC
[33] = test system: MDA-MB-231 breast
[34] = test system: NCI-H322M lung
[35] = test system: MDA-MB-435 melanoma
[36] = test system: MCF7 breast
[37] = test system: K-562 leukemia
[38] = test system: NCI/ADR-RES ovarian
[39] = test system: A549 NSCLC
[40] = test system: T-47D breast
[41] = test system: ACHN renal
[42] = test system: HOP-62 NSCLC
[43] = test system: SN12C renal
[44] = test system: A498 renal
[45] = test system: SF-268 CNS
[46] = test system: RXF 393 renal
[47] = test system: NCI-H460 NSCLC

O=C(/C=C/c1cccc(S(=O)(=O)Nc2ccccc2)c1)NO
GI50 [1]: 128 nM
TGI [1]: 1720 nM
GI50 [2]: 217 nM
TGI [2]: 597 nM
GI50 [3]: 490 nM
TGI [3]: 1650 nM
GI50 [4]: 289 nM
TGI [4]: 1030 nM
GI50 [5]: 898 nM
TGI [5]: 2780 nM
GI50 [6]: 196 nM
TGI [6]: 487 nM
GI50 [7]: 1880 nM
TGI [7]: 5860 nM
GI50 [8]: 223 nM
TGI [8]: 373 nM
GI50 [9]: 155 nM
TGI [9]: 610 nM
GI50 [10]: 95.7 nM
TGI [10]: 221 nM
GI50 [11]: 445 nM
TGI [11]: 2000 nM
GI50 [12]: 433 nM
TGI [12]: 1760 nM
GI50 [13]: 265 nM
TGI [13]: 558 nM
GI50 [14]: 155 nM
TGI [14]: 393 nM
GI50 [15]: 616 nM
TGI [15]: 2650 nM
GI50 [16]: 385 nM
TGI [16]: 1410 nM
GI50 [17]: 430 nM
TGI [17]: 1340 nM
GI50 [18]: 1020 nM
TGI [18]: 3170 nM
GI50 [19]: 205 nM
TGI [19]: 630 nM
GI50 [20]: 330 nM
TGI [20]: 791 nM
GI50 [21]: 299 nM
TGI [21]: 1280 nM
GI50 [22]: 188 nM
TGI [22]: 436 nM
GI50 [23]: 607 nM
TGI [23]: 1910 nM
GI50 [24]: 225 nM
TGI [24]: 985 nM
GI50 [25]: 407 nM
TGI [25]: 1590 nM
GI50 [26]: 537 nM
TGI [26]: 2140 nM
GI50 [27]: 258 nM
TGI [27]: 796 nM
GI50 [28]: 369 nM
TGI [28]: 1480 nM
GI50 [29]: 88.4 nM
TGI [29]: 204 nM
GI50 [30]: 853 nM
TGI [30]: 2240 nM
GI50 [31]: 1810 nM
TGI [31]: 8530 nM
GI50 [32]: 343 nM
TGI [32]: 1070 nM
GI50 [33]: 249 nM
TGI [33]: 575 nM
GI50 [34]: 465 nM
TGI [34]: 1840 nM
GI50 [35]: 492 nM
TGI [35]: 1450 nM
GI50 [36]: 264 nM
TGI [36]: 1300 nM
GI50 [37]: 188 nM
TGI [37]: 394 nM
GI50 [38]: 210 nM
TGI [38]: 551 nM
GI50 [39]: 422 nM
TGI [39]: 1590 nM
GI50 [40]: 208 nM
TGI [40]: 547 nM
GI50 [41]: 493 nM
TGI [41]: 1540 nM
GI50 [42]: 498 nM
TGI [42]: 2330 nM
GI50 [43]: 853 nM
TGI [43]: 2250 nM
GI50 [44]: 494 nM
TGI [44]: 1450 nM
GI50 [45]: 517 nM
TGI [45]: 1660 nM
GI50 [46]: 87.7 nM
TGI [46]: 365 nM
GI50 [47]: 350 nM
TGI [47]: 1500 nM

— PubChem BioAssay (NCI)
